Values joined by “and” are separate entries in the source; they are usually repeats but may differ in a detail not shown here. Identical values can stand only once.
What was measured:
[1] = test system: HaCaT cells; test: MCB test on HaCaT: intracellular GSH level after UV daylight (UV-DL) exposure; format: cell-based, human; settings: for activity at 30 µM / inhibition at 30 µM / activity at 100 µM / inhibition at 100 µM: Homo sapiens, t=6 hours after exposure; for activity at 30 µM / activity at 100 µM: GSH-monochlorobimane fluorescence, HaCaT pretreated and exposed to UV-DL, read-out: % fluo; for inhibition at 30 µM / inhibition at 100 µM: against UV-DL-induced depletion of GSH, read-out: % protection; for inhibition at 30 µM / inhibition at 100 µM / protection against the UV-DL-induced depletion of GSH: HaCaT
Description: The study consisted in evaluating at the cellular level the protective effect of the reference molecule, lipoic acid, and also of lipoic acid derivatives according to the invention, with respect to the UV-DL-induced depletion of intracellular GSH.
To do this, HaCaT cells were exposed to UV daylight (UV-DL). The level of intracellular GSH was then measured, thus allowing evaluation of the possible protection afforded by the addition to the culture medium of the lipoic acid derivatives according to the invention.
UV daylight corresponds to the radiation of non-zenithal sunlight and to an average spectral illumination: it […] the radiation received by the skin of an individual in the course of a day and not solely to that corresponding to exposure to zenithal sunlight. Devices for reproducing this radiation are described in FR 2,863,356. The evaluation technique uses a fluorescent probe, monochlorobimane (MCB). […] The specificity of MCB towards GSH in our keratinocyte model (HaCaT line) was confirmed previously. Pretreatment of cells with the reference molecule, lipoic acid, for 24 hours at 1 mM affords approximately 100% protection against the UV-DL-induced depletion of GSH (see FIG. 1 showing the evaluation of the protective effect of lipoic acid at 1 mM in the MCB test on HaCaT: the measurement of the level of intracellular GSH is performed on keratinocytes that are or are not pretreated with lipoic acid at 1 mM and exposed to UV-DL at t=0, t=6 hours and t=24 hours after the exposure to UV-DL); this protection is about 83% at 500 μM and about 10% at 100 μM.
Evaluation of the protective effect of compound 1 at 100 μM and at 30 μM of compounds 9, 10, 2, 13, 14, 12, 24, 26 and 27 is performed in the MCB test on HaCaT: evaluation of the protective effect of the silyl dithiolane compounds of WO 2008/058 999 at 100 μM is also performed in the MCB test on HaCaT: the compound 5-(1,2-dithiolan-3-yl)-N-[3-(trimethylsilyl)propyl]pentanamide and the compound (trimethylsilyl)methyl 5-(1,2-dithiolan-3-yl)pentanoate. Measurement of the intracellular level of GSH is performed on keratinocytes that have or have not been pretreated with the active agents and exposed to UV-DL, t=6 hours after the exposure to UV-DL). The results are given in the graphs in FIGS. 2 and 3.

[2] = test system: normal human fibroblasts (NHF); test: Comet test: UV-A-induced DNA damage in normal human fibroblasts; format: cell-based; settings: 24 hours contact, UV-A = 30 min
Description: Solar UV is capable of giving rise to extensive oxidative damage in skin cells, and especially in DNA. The nucleic acids absorb the UV-B photons, thus inducing DNA damage directly. Although UV-A is not directly absorbed by DNA, it has a genotoxic action mediated by reactive oxygen species. The comet test makes it possible to quantify the UV-induced DNA damage (in this case UV-A): the breaking of strands and oxidative DNA lesions (alkali-labile sites cleaved under alkaline conditions) are detected. The principle of this test is based on the capacity of denatured and cleaved DNA fragments to migrate outside the cell nuclei, under the influence of an electric field, whereas undamaged DNA remains confined in the nucleus. The damaged DNA fragments form a trail behind the cell nucleus. The cells then take the appearance of “comets”. The “tail” of each comet is proportionately larger and stronger the greater the DNA damage incurred. (Alapetite C. et al., 1996, Int. J. Rad. Bio.; Klaude M, et al., 1996, Mut. Res.; Lehmann J. et al., 1998, Mut. Res.; Singh N P. et al., 1988, Exp. Cell Res.).
The study consisted in evaluating the photoprotective effect of two molecules with respect to UV-A-induced DNA damage. To do this, normal human fibroblasts (NHF) were placed in contact with the active agents for 24 hours. The cells were then detached, included in an agarose gel and then deposited on a microscope slide. Following the UV-A exposure (for 30 minutes), the cells were subjected to cell lysis (so as to keep intact only the genetic material), to a DNA-denaturing step and then to electrophoresis to make the damaged DNA migrate. The level of damaged DNA was measured using a fluorescence microscope combined with specialized image analysis software.

| Compound | activity at 30 µM [1] | inhibition at 30 µM [1] | activity at 100 µM [1] | inhibition at 100 µM [1] | further results |
| --- | --- | --- | --- | --- | --- |
| CC1(C(=O)NCCO)CSSC1 [Compound 14, N-(2-hydroxyethyl)-4-methyl-1,2-dithiolane-4-carboxamide] | 78% | 61% | – | – | – |
| O=C(O)CCCCC1CCSS1 (stereo not shown) [lipoic acid, 1,2-dithiacyclopentane-3-valeric acid, reference compound] | – | – | 63% | 13% | protection against the UV-DL-induced depletion of GSH ([1]; pretreatment at 100 μM): about 10%; protection against the UV-DL-induced depletion of GSH ([1]; pretreatment at 500 μM): about 83%; protection against the UV-DL-induced depletion of GSH ([1]; pretreatment for 24 hours at 1 mM): approximately 100% |
| CC(=O)NCCSC(=O)C1(C)CSSC1 [Compound 13, S-[2-(acetylamino)ethyl]4-methyl-1,2-dithiolane-4-carbothioate] | 71% | 50% | – | – | – |
| COC(=O)C(CCSC)NC(=O)C1(C)CSSC1 (stereo not shown) [Compound 12, methyl 2-{[(4-methyl-1,2-dithiolan-4-yl)carbonyl]amino}-4-(methylsulfanyl)butanoate] | 78% | 61% | – | – | – |
| CC1(C(N)=O)CS[S+]([O-])C1 (stereo not shown) [Compound 26, 4-methyl-1,2-dithiolane-4-carboxamide 1-oxide] | 117% | 169% | – | – | – |
| C[Si](C)(C)CCCNC(=O)CCCCC1CCSS1 (stereo not shown) [5-(1,2-dithiolan-3-yl)-N-[3-(trimethylsilyl)propyl]pentanamide, reference compound] | – | – | 75% | 41% | – |
| CCCCCCCNC(=O)C1(C)CSSC1 [Compound 10, N-heptyl-4-methyl-1,2-dithiolane-4-carboxamide] | 99% | 98% | – | – | – |
| CC1(C(N)=O)CSS(=O)(=O)C1 (stereo not shown) [Compound 27, 4-methyl-1,2-dithiolane-4-carboxamide 1,1-dioxide] | 100% | 101% | – | – | – |
| CCCCCCCCOC(=O)C1(C)CSSC1 [Compound 9, octyl 4-methyl-1,2-dithiolane-4-carboxylate] | 80% | 66% | – | – | – |
| CC1(C(=O)O)CSS(=O)(=O)C1 (stereo not shown) [Compound 24, 4-methyl-1,2-dithiolane-4-carboxylic acid 1,1-dioxide] | 91% | 63% | – | – | – |
| CC1(C(=O)O)CSSC1 [Compound 1, 4-methyl-1,2-dithiolane-4-carboxylic acid] | – | – | 88% | 74% | % of DNA damage ([2]; 1 μM): 80.7%; % protection ([2]; 1 μM): 19.3%; Mean TM (DNA damage) ([2]; 1 μM): 9.38; % protection ([2]; 1 μM, listed as compound 1): 20%; % of DNA damage ([2]; 10 μM): 69.4%; % protection ([2]; 10 μM): 30.6%; Mean TM (DNA damage) ([2]; 10 μM): 8.06; % protection ([2]; 10 μM, listed as compound 1): 30% |
| C[Si](C)(C)COC(=O)CCCCC1CCSS1 (stereo not shown) [(trimethylsilyl)methyl 5-(1,2-dithiolan-3-yl)pentanoate, reference compound] | – | – | 76% | 42% | – |
| CC1(C(N)=O)CSSC1 [Compound 2, 4-methyl-1,2-dithiolane-4-carboxamide] | 92% | 86% | – | – | % of DNA damage ([2]; 10 μM): 37.1%; % protection ([2]; 10 μM): 63% and 62.9%; Mean TM (DNA damage) ([2]; 10 μM): 2.73 |

— US8530511B2, “Administration of dithiolane compounds for photoprotecting the skin” (L'Oreal, priority 2008, dated 2013)
